Source: US12329852B2, “Sustained-release 9-cis retinoic acid implantable drug delivery pellets for the prevention of postsurgical edema and lymphedema” (UNIVERSITY OF SOUTHERN CALIFORNIA, priority 2019, dated 2025)
Entries after “also recorded” stand apart in the source; their conditions may differ.

Legend:
[1] = test system: hind limb lymphedema; experiment: Hind limb lymphedema model, paw thickness (implantable pellet); format: in vivo, mouse; settings: for paw swelling, mean difference compared to control animals: implantable pellet 100 μg 9-cis RA, 30-day release
Method: All experiments were performed in accordance with the statutes from The Guide for the Care and Use of Laboratory Animals (National Research Council, 8th ed, 2011), the Animal Welfare Act, and other Federal regulations. The was approved by the University of Southern California Institutional Animal Care and Use Committee. Male and female Prox-1 green fluorescent protein (GFP) transgenic mice, 12-16 weeks old, weighing 20-30 g were bred within the University of Southern California animal facility. This GFP-expressing lymphatic reporter mouse was used because it conveniently allowed for the visualization of lymphatic vessels and other Prox1-expressing tissue under fluorescence microscopy, and facilitated the immunohistochemical staining of lymphatic vessels using anti-GFP primary antibody.
Under isoflurane-inhaled anesthesia, the lymphatic injury protocol was used on all experimental mice to induce hind limb lymphedema. This consisted of hind limb lymph node dissection followed by adjuvant radiation therapy. Using a dissecting microscope, a circumferential intradermal incision was made around the thigh, after which the ipsilateral inguinal fat pad, containing the inguinal lymph nodes, and ipsilateral popliteal lymph node were removed, as previously described. Visualization of the inguinal and popliteal lymphatics was facilitated by the injection of methylene blue dye on the dorsum of the paw and by the use of a green fluorescent microscope. Skin sutures were placed in 7-8 mm gaps to reinforce discontinuity of dermal lymphatics. The surgical area was then irradiated using a clinically relevant dose of 27.5 Gy radiation delivered by an XRad 320 device over a period of 5 days (550 cGy per day), which is the human equivalent dose for mouse.
Pellets were placed within the surgical wound intraoperatively and sutured in place to the adductor muscles of the thigh. Treatment pellets were custom-manufactured by Innovative Research of America (Sarasota, FL) to contain 100 μg of 9-cis RA, released over a period of 30 days using a matrix-driven delivery system. The carrier-binder excipients of the pellet matrix were synthetic and non-toxic, and included cholesterol, lactose, celluloses, phosphates, and stearates.
Prior to surgery, all animals were sex-, age-, and weight-matched to eliminate confounding variables. Paw thickness, the primary outcome, was measured weekly using electronic calipers for a total of 6 weeks. Paw thickness was normalized for each animal by calculating percent change relative to the unaffected paw. Hind limbs were photographed using a Nikon D5000 digital SLR flash camera using fixed distances, focal length, background, and positioning.

[2] = test system: hind limb lymphedema; experiment: ICG lymphography of hind limb, lymphatic clearance (implantable pellet); format: in vivo, mouse; settings: postoperative week 6, 3 to 144 hours after ICG injection
Method: At postoperative week 6, lymphatic clearance was measured using indocyanine green (ICG) lymphography to compare lymphatic function between the treatment and placebo groups. After inducing anesthesia via isoflurane inhalation, a sub-microliter injection system syringe was used to intradermally inject 2 uL of ICG on the dorsal aspect of the second and fifth paw digits. ICG lymphography images were recorded at 1, 3, 6, 12, 24, 48, 72, 96, and 144 hours post-injection. The fluorescence intensity of the lymphography images was quantified at each post-injection time point using ImageJ pixel intensity analysis (National Institutes of Health, Bethesda, MD).
Indocyanine green (ICG) lymphography is a well-established procedure used in clinics by healthcare providers to visualize lymphatic vessels in real-time for the purposes of diagnosis or preoperative planning. When ICG is injected intradermally, it is preferentially picked up and cleared by the lymphatic system. This imaging modality provides rapid visualization of lymphatic vessels and measures lymphatic clearance, acting as a surrogate for lymphatic function. […] Thus, at postoperative week 6 and prior to euthanasia, lymphatic clearance were monitored by quantifying the change in dermal fluorescence of mouse hind limbs injected with ICG.

[3] = test system: tail lymphedema; experiment: Indocyanine green lymphangiography of tail (intraperitoneal injection); format: in vivo, BALB/c mice; settings: day 45; for ICG fluorescent intensity compared to control: 48 hours after injection
Method: On Day 45, animals were anesthetized using 2.5% isofluorane, and 5 μL of 2.5 mg/mL indocyanine green (ICG) was injected into the distal end of each animal's tail 15 minutes prior to imaging. The SPY Elite Fluorescence Imaging System (Novadaq Technologies, BC, Canada) was used to capture fluorescent images and heat maps of the tails at 0, 1, 2, 3, 6, 12, 24, and 48 hours following ICG injection. Capture conditions were kept constant throughout the trial. Fluorescent intensity of the tails at each time point was quantified using a previously described method for measuring cell fluorescence in ImageJ [4, 7]. Values were then recorded and plotted using GraphPad Prism 7. Percent change in fluorescent intensity from the peak fluorescent uptake at 6 hours was used to measure ICG clearance.

[4] = test system: lymphatic vessels of uninjured ears; experiment: Lymphatic analysis of uninjured ears, LYVE-1 whole mount; format: in vivo, BALB/c mice; settings: 0.08 mg/kg daily i.p., any duration
Method: Bilateral ears of animals were harvested simultaneously with the diaphragm, removed of all hair using depilatory cream and fixed in 4% paraformaldehyde. The ears were then split between the inner and outer layers under a dissecting microscope and the cartilage removed prior to immunoflourescence staining. The whole mounted specimens were subsequently stained with anti-LYVE-1 and anti-CD-31 antibodies after washing with PBS, permeabilizing with 0.5% Triton X-100 (Sigma-Aldrich, USA), and incubated with the primary antibody (1:500) overnight. Green secondary antibodies (1:200 donkey anti-rabbit Alexa Fluor 488, Thermo Fisher Scientific, Canoga Park, CA) were used to stain for LYVE-1.
Slides were counterstained with hematoxylin and mounted. All images were obtained with a Keyence BZ-X700 microscope (Itasca, IL) and epidermal and dermal thickness was measured using ImageJ (National Institutes of Health, Betheseda, MD). The thickest part of the epidermis and dermis was measured in 5 high-power fields per section, as previously described. On the immunohistochemically stained slides, podoplanin stained vessels in the dermis and subcutis were quantified in ImageJ. Two high-power fields per section were randomly selected and then analyzed by a blinded reviewer. The reviewer scored the number of podoplanin stained vessels and the area (mm^2) of the dermis and subcutaneous tissue in each image. […]

[5] = test system: tail lymphedema; experiment: Oral administration, tail lymphedema, gross tail volume; format: in vivo, BALB/c mice; settings: oral gavage in sunflower oil for 6 weeks
Method: (§1) Oral administration experiments were performed on 30 adult BALB/c mice, 12 to 14 weeks old, and weighing between 21 and 30 g. Surgical excision of lymphatic vessels at 20-mm from the base of the tail was performed in order to induce secondary lymphedema. Mice receive 9-cis RA dissolved in sunflower oil via oral gavage for 6 weeks in accordance to the dosing regimes in Table 3.

[6] = test system: tail lymphedema; experiment: Oral administration, tail lymphedema, lymphatic clearance; format: in vivo, BALB/c mice; settings: oral gavage for 6 weeks
Method: as §1

[7] = test system: postsurgical lymphedema; settings: daily intraperitoneal injections 0.08 mg/kg; earlier work [13]; cited from earlier work
[8] = test system: lymphatic endothelial cell; settings: in vitro; earlier work [12,13]; cited from earlier work

## CC1=C(/C=C/C(C)=C\C=C\C(C)=C\C(=O)O)C(C)(C)CCC1 [9-cis RA, 9-cis retinoic acid]
[1]; postoperative week 3
  paw swelling, mean difference compared to control animals: 7%
[1]; postoperative week 4
  paw swelling, mean difference compared to control animals: 12%
[1]; postoperative week 5
  paw swelling, mean difference compared to control animals: 9%
[1]; postoperative week 6
  paw swelling, mean difference compared to control animals: 11%
[1]; implantable pellet, between time points over 6 weeks
  change in paw swelling/thickness within the treatment group over time: no significant differences in paw swelling are observed between time points
[2]
  lymphatic drainage as change in ICG fluorescence compared to control: significantly faster lymphatic drainage
[3]; 24 hours after ICG injection, all treatment groups
  percent change of ICG fluorescent intensity compared to control: significant decrease in the percent change of fluorescent intensity compared to the control
[3]; 7-day group
  ICG fluorescent intensity compared to control: no longer significant from the control
[3]; 14-day, 42-day and 7-day delayed groups
  ICG fluorescent intensity compared to control: significant decrease in fluorescent intensity
[4]
  number of branch points, blind-ended sacs, loops, total length, density of lymphatic vessels in uninjured ears vs vehicle control: no significant difference
[5]; high dose 30 mg/kg
  change in gross tail volume: decreases change in gross tail volume
[5]; low dose 10 mg/kg, 10 mg/kg
  change in gross tail volume: decreases change in gross tail volume
[5]; low dose 10 mg/kg, listed as 9-cis retinoic acid, 10 mg/kg
  change in gross tail volume: most effective for preventing post-surgical tail lymphedema
[6]; high dose 30 mg/kg
  lymphatic clearance: improves lymphatic clearance
[6]; low dose 10 mg/kg
  lymphatic clearance: improves lymphatic clearance
[7]
  prevention of postsurgical lymphedema: significantly prevents development of lymphedema; also recorded: prevents postsurgical lymphedema
[8]
  lymphatic endothelial cell proliferation, migration and vessel formation: significantly increased
